From ChEMBL document CHEMBL1955743, “Potent inhibitors of LpxC for the treatment of Gram-negative infections” (J Med Chem, 2012)
In brackets after ≈: the same amount, converted by molar mass.

Experiments:
[1] = target: T1, UDP-3-O-acyl-N-acetylglucosamine deacetylase (Pseudomonas aeruginosa (strain ATCC 15692 / PAO1 / 1C / PRS 101 / LMG12228), UniProt P47205); assay: Inhibition of Pseudomonas aeruginosa LpxC using UDP-3-O-(R-hydroxydecanoyl)-N-acetylglucosamine incubated for 30 mins prior to substrate addition measured after 60 mins by mass spectrophotometry
T1 sequence (P47205 whole entry): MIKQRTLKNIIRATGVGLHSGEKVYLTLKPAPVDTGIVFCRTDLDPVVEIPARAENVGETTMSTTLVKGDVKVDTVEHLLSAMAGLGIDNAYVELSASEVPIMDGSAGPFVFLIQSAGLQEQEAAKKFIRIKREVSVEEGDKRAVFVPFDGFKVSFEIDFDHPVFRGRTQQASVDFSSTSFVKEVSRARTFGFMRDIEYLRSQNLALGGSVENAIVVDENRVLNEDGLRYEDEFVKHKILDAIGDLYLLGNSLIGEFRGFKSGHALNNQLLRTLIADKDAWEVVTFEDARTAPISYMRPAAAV

Pseudomonas aeruginosa [2] = assay: Antibacterial activity against Pseudomonas aeruginosa PAO1 after 16 to 20 hrs by broth microdilution method; format: functional
Klebsiella aerogenes = assay: Antibacterial activity against Enterobacter aerogenes after 16 to 20 hrs by broth microdilution method; format: functional
Escherichia coli = assay: Antibacterial activity against Escherichia coli after 16 to 20 hrs by broth microdilution method; format: functional
Citrobacter freundii = assay: Antibacterial activity against Citrobacter freundii after 16 to 20 hrs by broth microdilution method; format: functional
Pseudomonas aeruginosa [3] = assay: Antibacterial activity against Pseudomonas aeruginosa after 16 to 20 hrs by broth microdilution method; format: functional
Staphylococcus aureus = assay: Antibacterial activity against Staphylococcus aureus ATCC 29213 after 16 to 20 hrs by broth microdilution method; format: functional
Klebsiella pneumoniae = assay: Antibacterial activity against Klebsiella pneumoniae after 16 to 20 hrs by broth microdilution method; format: functional
Acinetobacter baumannii = assay: Antibacterial activity against Acinetobacter baumannii after 16 to 20 hrs by broth microdilution method; format: functional
Pseudomonas aeruginosa [4] = assay: Antibacterial activity against Pseudomonas aeruginosa clinical isolates after 16 to 20 hrs by broth microdilution method; format: functional

| Compound | IC50 [1] | MIC (Pseudomonas aeruginosa [2]) | MIC (Staphylococcus aureus) | other results |
| --- | --- | --- | --- | --- |
| C[C@@](CCc1ccc(-c2ccc3c(c2)OCO3)cc1)(C(=O)NO)S(C)(=O)=O | 1.2 nM | 0.125 µg/mL (≈ 0.319 µM) | > 64 µg/mL | MIC90 (Klebsiella aerogenes): 1 µg/mL (≈ 2.55 µM); MIC90 (Escherichia coli): 0.5 µg/mL (≈ 1.28 µM); MIC90 (Citrobacter freundii): 2 µg/mL (≈ 5.11 µM); MIC90 (Pseudomonas aeruginosa [3]): 1 µg/mL (≈ 2.55 µM); MIC90 (Klebsiella pneumoniae): 4 µg/mL (≈ 10.2 µM); MIC90 (Acinetobacter baumannii): > 64 µg/mL |
| C[C@H]1[C@H](NC(=O)/C(=N\OC(C)(C)C(=O)O)c2csc(N)n2)C(=O)N1S(=O)(=O)O [AZTREONAM] |  |  |  | MIC90 (Klebsiella aerogenes): 32 µg/mL (≈ 73.5 µM); MIC90 (Escherichia coli): > 64 µg/mL; MIC90 (Citrobacter freundii): > 64 µg/mL; MIC90 (Pseudomonas aeruginosa [3]): 64 µg/mL (≈ 147 µM); MIC90 (Klebsiella pneumoniae): > 64 µg/mL; MIC90 (Acinetobacter baumannii): 32 µg/mL (≈ 73.5 µM) |
| C[C@@](CCc1ccc(-c2cccc(Cl)c2)cc1)(C(=O)NO)S(C)(=O)=O | 3.54 nM | 0.5 µg/mL (≈ 1.31 µM) | 32 µg/mL (≈ 83.8 µM) |  |
| O=C(NO)C1(CCc2ccc(-c3ccccc3)cc2)CCCS1(=O)=O (racemic) | > 92.5 nM | > 64 µg/mL | 64 µg/mL (≈ 178 µM) |  |
| CS(=O)(=O)C(CCc1ccc(-c2ccccc2)cc1)C(=O)NO (racemic) | 13.8 nM | 1 µg/mL (≈ 3 µM) | > 64 µg/mL |  |
| CC(CSc1ccc(-c2ccccc2)cc1)(C(=O)NO)S(C)(=O)=O (racemic) | 9.04 nM | 2 µg/mL (≈ 5.47 µM) | 64 µg/mL (≈ 175 µM) |  |
| CCc1ccccc1-c1ccc(CC[C@](C)(C(=O)NO)S(C)(=O)=O)cc1 | 26.1 nM | 8 µg/mL (≈ 21.3 µM) | 32 µg/mL (≈ 85.2 µM) |  |
| CC(C)c1cccc(-c2ccc(CC[C@](C)(C(=O)NO)S(C)(=O)=O)cc2)c1 | 6.78 nM | 8 µg/mL (≈ 20.5 µM) | 32 µg/mL (≈ 82.2 µM) |  |
| C[C@](CCc1ccc(-c2ccccc2)cc1)(C(=O)NO)S(C)(=O)=O |  | > 64 µg/mL | > 64 µg/mL |  |
| CC(CCc1ccc(OCc2ccncc2)cc1)(C(=O)NO)S(C)(=O)=O (racemic) | 21.6 nM | 4 µg/mL (≈ 10.6 µM) | > 64 µg/mL |  |
| C[C@@](CCc1ccc(-c2ccc(CN)cc2)cc1)(C(=O)NO)S(C)(=O)=O | 12.9 nM | 1 µg/mL (≈ 2.66 µM) | > 64 µg/mL |  |
| POLYMYXIN B |  |  |  | MIC50 (Pseudomonas aeruginosa [4]): 0.5 µg/mL; MIC90 (Pseudomonas aeruginosa [4]): 1 µg/mL |
| C[C@@](CCc1ccc(-c2ccccc2C(N)=O)cc1)(C(=O)NO)S(C)(=O)=O | > 100 nM | > 64 µg/mL | > 64 µg/mL |  |
| CC(C)(O/N=C(\C(=O)N[C@@H]1C(=O)N2C(C(=O)[O-])=C(C[n+]3ccccc3)CS[C@H]12)c1csc(N)n1)C(=O)O [CEFTAZIDIME] |  |  |  | MIC50 (Pseudomonas aeruginosa [4]): 16 µg/mL (≈ 29.3 µM); MIC90 (Pseudomonas aeruginosa [4]): > 64 µg/mL |
| COc1ccccc1-c1ccc(CC[C@](C)(C(=O)NO)S(C)(=O)=O)cc1 | 7.04 nM | 1 µg/mL (≈ 2.65 µM) | > 64 µg/mL |  |
| COc1ccc(CCC(C)(C(=O)NO)S(C)(=O)=O)cc1 (racemic) | > 100 nM | 16 µg/mL (≈ 53.1 µM) | > 64 µg/mL |  |
| O=C(O)c1cn(C2CC2)c2cc(N3CCNCC3)c(F)cc2c1=O [CIPROFLOXACIN] |  |  | 0.25 µg/mL (≈ 0.754 µM) | MIC90 (Klebsiella aerogenes): 1 µg/mL (≈ 3.02 µM); MIC90 (Escherichia coli): > 64 µg/mL; MIC90 (Pseudomonas aeruginosa [3]): 64 µg/mL (≈ 193 µM); MIC90 (Klebsiella pneumoniae): 64 µg/mL (≈ 193 µM); MIC90 (Acinetobacter baumannii): 64 µg/mL (≈ 193 µM) |
| C[C@@](CCc1ccc(-c2ccc(OCCCC(=O)O)cc2)cc1)(C(=O)NO)S(C)(=O)=O | 21.2 nM | 8 µg/mL (≈ 17.8 µM) | > 64 µg/mL |  |
| C[C@@](CCc1ccc(-c2ccccc2F)cc1)(C(=O)NO)S(C)(=O)=O | 1.36 nM | 0.125 µg/mL (≈ 0.342 µM) | 32 µg/mL (≈ 87.6 µM) |  |
| NCC[C@H](O)C(=O)N[C@@H]1C[C@H](N)[C@@H](O[C@H]2O[C@H](CN)[C@@H](O)[C@H](O)[C@H]2O)[C@H](O)[C@H]1O[C@H]1O[C@H](CO)[C@@H](O)[C@H](N)[C@H]1O [AMIKACIN] |  |  |  | MIC50 (Pseudomonas aeruginosa [4]): 4 µg/mL (≈ 6.83 µM); MIC90 (Pseudomonas aeruginosa [4]): 32 µg/mL (≈ 54.6 µM) |
| C[C@@H](O)[C@H](NC(=O)c1ccc(C#Cc2ccc(CN3CCOCC3)cc2)cc1)C(=O)NO |  | 1 µg/mL (≈ 2.29 µM) | > 64 µg/mL | MIC90 (Klebsiella aerogenes): 0.5 µg/mL (≈ 1.14 µM); MIC90 (Escherichia coli): 0.25 µg/mL (≈ 0.571 µM); MIC90 (Citrobacter freundii): 0.5 µg/mL (≈ 1.14 µM); MIC90 (Pseudomonas aeruginosa [3]): 4 µg/mL (≈ 9.14 µM); MIC90 (Klebsiella pneumoniae): 2 µg/mL (≈ 4.57 µM); MIC90 (Acinetobacter baumannii): > 64 µg/mL |
| C[C@@](CCc1ccc(-c2cccc(-n3cccn3)c2)cc1)(C(=O)NO)S(C)(=O)=O | 22.1 nM | 32 µg/mL (≈ 77.4 µM) | 64 µg/mL (≈ 155 µM) |  |

The next lines start with results.

| IC50 [1] | MIC (Pseudomonas aeruginosa [2]) | MIC (Staphylococcus aureus) | Compound | other results |
| --- | --- | --- | --- | --- |
| 27.8 nM | 32 µg/mL (≈ 82 µM) | > 64 µg/mL | C[C@@](CCc1ccc(-c2cccc(C(N)=O)c2)cc1)(C(=O)NO)S(C)(=O)=O |  |
| 1.85 nM | 0.5 µg/mL (≈ 1.23 µM) | > 64 µg/mL | C[C@@](CCc1ccc(-c2ccc(C(=O)CO)cc2)cc1)(C(=O)NO)S(C)(=O)=O | MIC90 (Klebsiella aerogenes): 4 µg/mL (≈ 9.87 µM); MIC90 (Escherichia coli): 2 µg/mL (≈ 4.93 µM); MIC90 (Citrobacter freundii): 4 µg/mL (≈ 9.87 µM); MIC90 (Pseudomonas aeruginosa [3]): 1 µg/mL (≈ 2.47 µM); MIC90 (Klebsiella pneumoniae): 8 µg/mL (≈ 19.7 µM); MIC90 (Acinetobacter baumannii): > 64 µg/mL |
| 30.4 nM | 4 µg/mL (≈ 10.5 µM) | 64 µg/mL (≈ 169 µM) | C[C@@](CCc1ccc(Sc2ccccc2)cc1)(C(=O)NO)S(C)(=O)=O |  |
| 1.74 nM | 0.25 µg/mL (≈ 0.684 µM) | > 64 µg/mL | C[C@@](CCc1ccc(-c2ccc(F)cc2)cc1)(C(=O)NO)S(C)(=O)=O | MIC90 (Klebsiella aerogenes): 2 µg/mL (≈ 5.47 µM); MIC90 (Escherichia coli): 1 µg/mL (≈ 2.74 µM); MIC90 (Citrobacter freundii): 4 µg/mL (≈ 10.9 µM); MIC90 (Pseudomonas aeruginosa [3]): 1 µg/mL (≈ 2.74 µM); MIC90 (Klebsiella pneumoniae): 8 µg/mL (≈ 21.9 µM); MIC90 (Acinetobacter baumannii): 32 µg/mL (≈ 87.6 µM) |
| < 1.05 nM | 0.5 µg/mL (≈ 1.31 µM) | 16 µg/mL (≈ 41.9 µM) | C[C@@](CCc1ccc(-c2ccc(Cl)cc2)cc1)(C(=O)NO)S(C)(=O)=O |  |
|  | 2 µg/mL (≈ 4.08 µM) | > 64 µg/mL | C[C@@](CCc1ccc(-c2ccc(OCCCN3CCOCC3)cc2)cc1)(C(=O)NO)S(C)(=O)=O | MIC90 (Klebsiella aerogenes): 1 µg/mL (≈ 2.04 µM); MIC90 (Escherichia coli): 0.5 µg/mL (≈ 1.02 µM); MIC90 (Citrobacter freundii): 1 µg/mL (≈ 2.04 µM); MIC90 (Pseudomonas aeruginosa [3]): 4 µg/mL (≈ 8.15 µM); MIC90 (Klebsiella pneumoniae): 4 µg/mL (≈ 8.15 µM); MIC90 (Acinetobacter baumannii): > 64 µg/mL |
| 10.1 nM | 4 µg/mL (≈ 11.3 µM) | 64 µg/mL (≈ 180 µM) | CC(CCc1ccc(OC2CCCC2)cc1)(C(=O)NO)S(C)(=O)=O (racemic) |  |
| > 67.9 nM | 64 µg/mL (≈ 156 µM) | 32 µg/mL (≈ 78.1 µM) | CC(CCc1ccc(-c2ccccc2)cc1)(C(=O)NO)S(=O)(=O)c1ccccc1 (racemic) |  |
| < 2.47 nM | 2 µg/mL (≈ 5.12 µM) | > 64 µg/mL | C[C@@](CCc1ccc(-c2ccc(C(N)=O)cc2)cc1)(C(=O)NO)S(C)(=O)=O |  |
| 31.4 nM | 4 µg/mL (≈ 11.4 µM) | > 64 µg/mL | CC(COc1ccc(-c2ccccc2)cc1)(C(=O)NO)S(C)(=O)=O (racemic) |  |
| 11.9 nM | 4 µg/mL (≈ 10.1 µM) | > 64 µg/mL | CC(CS(=O)(=O)c1ccc(-c2ccccc2)cc1)(C(=O)NO)S(C)(=O)=O (racemic) |  |
| 73.6 nM | 64 µg/mL (≈ 163 µM) | > 64 µg/mL | C[C@@](CCc1ccc(-c2ccc(C(=O)O)cc2)cc1)(C(=O)NO)S(C)(=O)=O |  |
| > 100 nM | 16 µg/mL (≈ 59 µM) | > 64 µg/mL | C[C@@](CCc1ccccc1)(C(=O)NO)S(C)(=O)=O |  |
| 5.16 nM | 2 µg/mL (≈ 5.3 µM) | > 64 µg/mL | CC(CCc1ccc(OCc2ccccc2)cc1)(C(=O)NO)S(C)(=O)=O (racemic) |  |
| 29.7 nM | 4 µg/mL (≈ 11.5 µM) | > 64 µg/mL | C[C@@](CCc1ccc(-c2cccnc2)cc1)(C(=O)NO)S(C)(=O)=O |  |
| 12.7 nM | 2 µg/mL (≈ 4.76 µM) | > 64 µg/mL | CC(CCc1ccc(-c2ccc(OCCCN)cc2)cc1)(C(=O)NO)S(C)(=O)=O (racemic) |  |
| 92.7 nM | > 64 µg/mL | > 64 µg/mL | CC(CCc1ccc(OCc2cc[n+]([O-])cc2)cc1)(C(=O)NO)S(C)(=O)=O (racemic) |  |
| 9.49 nM | 32 µg/mL (≈ 69.2 µM) | 32 µg/mL (≈ 69.2 µM) | CC(CCc1ccc(-c2ccc(OCCCNC(=N)N)cc2)cc1)(C(=O)NO)S(C)(=O)=O (racemic) |  |
